This note sets out measurements from patent US8404643B2, “Metastin derivatives and use thereof” (priority 2005, dated 2013).

Square brackets hold non-standard residues; d marks the D form. Peptide text beside a SMILES is read from it. Phe(βS-OH) = N[C@H](C(=O)O)[C@@H](O)c1ccccc1; Phe(4-Cl) = N[C@@H](Cc1ccc(Cl)cc1)C(=O)O; Phe(3-F) = N[C@@H](Cc1cccc(F)c1)C(=O)O; Arg(Me) = CNC(=N)NCCC[C@H](N)C(=O)O; Hyp = O=C(O)[C@@H]1C[C@@H](O)CN1; dNMeA = CN[C@H](C)C(=O)O; Aze = O=C(O)[C@@H]1CCN1; azaGly = NNC(=O)O; βAla = NCCC(=O)O

The target in the assay is T1, hOT7T175 (Homo sapiens, UniProt Q969F8).
T1 construct: expressed in transfected cells
T1 sequence (Q969F8 whole entry L364H): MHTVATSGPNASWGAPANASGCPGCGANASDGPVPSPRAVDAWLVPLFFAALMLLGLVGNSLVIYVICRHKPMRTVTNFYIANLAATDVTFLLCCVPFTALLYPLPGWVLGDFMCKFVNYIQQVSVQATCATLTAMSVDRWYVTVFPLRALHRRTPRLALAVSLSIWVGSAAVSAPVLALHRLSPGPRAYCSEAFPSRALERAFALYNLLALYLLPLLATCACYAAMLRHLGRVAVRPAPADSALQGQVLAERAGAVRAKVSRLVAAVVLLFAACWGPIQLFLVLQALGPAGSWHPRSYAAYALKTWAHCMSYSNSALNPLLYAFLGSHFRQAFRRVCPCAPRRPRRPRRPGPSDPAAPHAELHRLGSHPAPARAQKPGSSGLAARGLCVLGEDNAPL
The assay can be described thus: Assay for intracellular Ca ion level-increasing activity using FLIPR. It counts as cell-based. Conditions: hOT7T175/CHO cells, relative to Metastin (1-54). Here is the method: In accordance with the method described in JPA 2000-312590, the intracellular Ca ion level-increasing activity was measured using FLIPR.
The stable expression cell line hOT7T175 was obtained by transfection of the expression plasmid pAK-rOT175 for animal cells into CHO/dhfr^− cells, using CellPhect Transfection Kit (Amersham Pharmacia Biotech, Inc.). First, 240 μL of Buffer A (attached to CellPhect Transfection Kit) was added to 9.6 μg of plasmid DNA dissolved in 240 μL of distilled water followed by stirring. After the mixture was settled for 10 minutes, 480 μL of Buffer B (attached to CellPhect Transfection Kit) was added to the mixture, which was vigorously stirred to form liposomes containing the DNA. Then, 4×10^5 CHO/dhfr^− cells (obtained from ATCC) were inoculated on a 60 mm Petri dish. After culturing the cells in Ham's F-12 medium (Nissui Seiyaku Co., Ltd.) supplemented with 10% fetal bovine serum (BIO WHITTAKER, Inc.) at 37° C. for 2 days in 5% carbon dioxide gas, […] of the liposomes were dropwise added to the cells on the Petri dish. After culturing the cells at 37° C. for 6 hours in 5% carbon dioxide gas, the cells were washed twice with serum-free Ham's F-12 medium and 3 mL of 15% glycerol was added to the cells on the Petri dish followed by treatment for 2 minutes. The cells were again washed twice with serum-free Ham's F-12 medium followed by incubation in Ham's F-12 medium supplemented with 10% fetal bovine serum at 37° C. for 15 hours in 5% carbon dioxide gas. The cells were dispersed by trypsin treatment to recover from the Petri dish. The recovered cells were inoculated on a 6-well plate in 1.25×10^4 cells/well and incubation was initiated at 37° C. in Dulbecco's modified Eagle medium (DMEM) medium (Nissui Seiyaku Co., Ltd.) containing 10% dialyzed fetal bovine serum (JRH BIOSCIENCES, Inc.) in 5% carbon dioxide gas. The plasmid-transfected CHO transformants grew in the medium but the non-transfected cells gradually died, accordingly the medium was exchanged on Days 1 and 2 after the initiation of incubation to remove the cells died. Approximately 20 colonies of the CHO transformants that kept growing on Days 8 to 10 after the incubation were isolated. From the cells in these colonies, cells showing high reactivity with the ligand peptide metastin (hereinafter merely referred to as hOT7T175/CHO) were selected to provide for the following experiment.
The intracellular Ca ion level-increasing activity of the synthetic peptide in hOT7T175/CHO was determined using FLIPR (Molecular Devices, Inc.).
hOT7T175/CHO was subcultured in DMEM supplemented with 10% dialyzed fetal bovine serum (hereinafter abbreviated as dFBS) (hereinafter referred to as 10% dFBS/DMEM) and provided for the experiment. The hOT7T175/CHO was suspended in 10% dFBS-DMEM in 15×10^4 cells/ml. The suspension was inoculated on a 96-well plate for FLIPR (Black Plate Clear Bottom, Coster, Inc.) at 200 μl/well (3.0×10^4 cells/200 μL/well), followed by incubation at 37° C. overnight in a 5% CO2 incubator (hereinafter referred to as the cell plate). Then, 21 ml of HANKS/HBSS (9.8 g of HANKS, 0.35 g of sodium hydrogencarbonate, 20 ml of 1M HEPES; after adjusting the pH to 7.4 with 1N sodium hydroxide, the mixture was sterilized by filtration), 210 μl of 250 mM Probenecid and 210 μl of fetal bovine serum (FBS) (HANKS/HBSS-Probenecid-FBS) were mixed.
Furthermore, 2 vials of Fluo3-AM (50 μg/vial) were dissolved in 21 μL of dimethylsulfoxide and 21 μL of 20% Pluronic acid. The resulting solution was added to and mixed with 10 ml of the HANKS/HBSS-Probenecid-FBS described above. After the culture medium was removed, the mixture was dispensed onto the cell plate in 100 μl each/well, followed by incubation at 37° C. for an hour in a 5% CO2 incubator (pigment loading). The peptide was dissolved in dimethylsulfoxide in 1×10^−3 M. The peptide solution was diluted with HANKS/HBSS containing 2.5 mM Probenecid, 0.2% BSA and 0.1% CHAPS. […]

As to `CNC(=N)NCCC[C@H](NC(=O)[C@H](CC(C)C)NC(=O)NNC(=O)[C@H](Cc1cccc(F)c1)NC(=O)[C@@H](NC(=O)[C@H](CC(N)=O)NC(=O)[C@H](CCCCN)NC(=O)[C@@H](Cc1ccc(O)cc1)NC(C)=O)[C@@H](C)O)C(=O)N[C@@H](Cc1c[nH]c2ccccc12)C(N)=O` [Compound No. 756, Ac-D-Tyr-Lys-Asn-Thr-Phe(3F)-AzaGly-Leu-Arg(Me)-Trp-NH2] (Ac-[dY]KNT[Phe(3-F)][azaGly]L[Arg(Me)]W-NH2), the “Specific Activity: intracellular Ca ion level-increasing activity [specific activity to Metastin (1-54)]” value is reported as 2.4.

Consider `CNC(=N)NCCC[C@H](NC(=O)[C@H](CC(C)C)NC(=O)NNC(=O)[C@H](Cc1ccccc1)NC(=O)[C@@H](NC(=O)[C@H](CC(N)=O)NC(=O)[C@@H](NC(=O)[C@@H](Cc1ccc(O)cc1)NC(C)=O)[C@@H](C)O)[C@@H](C)O)C(=O)N[C@@H](Cc1c[nH]c2ccccc12)C(N)=O` [Compound No. 772, Ac-D-Tyr-Thr-Asn-Thr-Phe-AzaGly-Leu-Arg(Me)-Trp-NH2] (Ac-[dY]TNTF[azaGly]L[Arg(Me)]W-NH2), for which the “Specific Activity: intracellular Ca ion level-increasing activity [specific activity to Metastin (1-54)]” value came out at 1.3.

For `CNC(=N)NCCC[C@H](NC(=O)[C@H](CC(C)C)NC(=O)NNC(=O)[C@H](Cc1ccccc1)NC(=O)[C@@H](NC(=O)CNC(=O)[C@@H]1C[C@@H](O)CN1C(=O)[C@@H](Cc1ccc(O)cc1)NC(C)=O)[C@@H](C)O)C(=O)N[C@@H](Cc1c[nH]c2ccccc12)C(N)=O` [Compound No. 862, Ac-D-Tyr-Hyp-Gly-Thr-Phe-AzaGly-Leu-Arg(Me)-Trp-NH2] (Ac-[dY][Hyp]GTF[azaGly]L[Arg(Me)]W-NH2), the “Specific Activity: intracellular Ca ion level-increasing activity [specific activity to Metastin (1-54)]” value was determined as 0.7.

On to `CNC(=N)NCCC[C@H](NC(=O)[C@H](CC(C)C)NC(=O)NNC(=O)[C@H](Cc1ccccc1)NC(=O)[C@@H](NC(=O)[C@H](CC(N)=O)NC(=O)[C@@H](C)N(C)C(=O)[C@@H](Cc1ccc(O)cc1)NC(C)=O)[C@@H](C)O)C(=O)N[C@@H](Cc1c[nH]c2ccccc12)C(N)=O` [Compound No. 732, Ac-D-Tyr-D-NMeAla-Asn-Thr-Phe-AzaGly-Leu-Arg(Me)-Trp-NH2] (Ac-[dY][dNMeA]NTF[azaGly]L[Arg(Me)]W-NH2), for which the “Specific Activity: intracellular Ca ion level-increasing activity [specific activity to Metastin (1-54)]” value is given as 3.2.

With `CNC(=N)NCCC[C@H](NC(=O)[C@H](CC(C)C)NC(=O)NNC(=O)[C@@H](NC(=O)[C@@H](NC(=O)[C@H](CC(N)=O)NC(=O)[C@@H]1C[C@@H](O)CN1C(=O)[C@@H](Cc1ccc(O)cc1)NC(C)=O)[C@@H](C)O)[C@@H](O)c1ccccc1)C(=O)N[C@@H](Cc1c[nH]c2ccccc12)C(N)=O` [Compound No. 882, Ac-D-Tyr-Hyp-Asn-Thr-erythro-Ser(3Phenyl)-AzaGly-Leu-Arg(Me)-Trp-NH2] (Ac-[dY][Hyp]NT[Phe(βS-OH)][azaGly]L[Arg(Me)]W-NH2), the “Specific Activity: intracellular Ca ion level-increasing activity [specific activity to Metastin (1-54)]” value was found to be 0.8.

Take `CNC(=N)NCCC[C@H](NC(=O)[C@H](CC(C)C)NC(=O)NNC(=O)[C@H](Cc1ccccc1)NC(=O)[C@@H](NC(=O)[C@H](CC(N)=O)NC(=O)[C@@H]1CCN1C(=O)[C@@H](Cc1ccc(O)cc1)NC(C)=O)[C@@H](C)O)C(=O)N[C@@H](Cc1c[nH]c2ccccc12)C(N)=O` [Compound No. 720, Ac-D-Tyr-Aze(2)-Asn-Thr-Phe-AzaGly-Leu-Arg(Me)-Trp-NH2] (Ac-[dY][Aze]NTF[azaGly]L[Arg(Me)]W-NH2): the “Specific Activity: intracellular Ca ion level-increasing activity [specific activity to Metastin (1-54)]” value amounted to 0.8.

For `CNC(=N)NCCC[C@H](NC(=O)[C@H](CC(C)C)NC(=O)NNC(=O)[C@H](Cc1ccccc1)NC(=O)[C@@H](NC(=O)[C@H](CC(N)=O)NC(C)=O)[C@@H](C)O)C(=O)N[C@@H](Cc1c[nH]c2ccccc12)C(N)=O` [Compound No. 709, Ac-Asn-Thr-Phe-AzaGly-Leu-Arg(Me)-Trp-NH2] (Ac-NTF[azaGly]L[Arg(Me)]W-NH2), the “Specific Activity: intracellular Ca ion level-increasing activity [specific activity to Metastin (1-54)]” value is 9.8.

Regarding `CNC(=N)NCCC[C@H](NC(=O)[C@H](CC(C)C)NC(=O)NNC(=O)[C@H](Cc1ccccc1)NC(=O)[C@@H](NC(=O)[C@H](CC(N)=O)NC(=O)[C@H](CO)NC(=O)[C@@H](Cc1ccc(O)cc1)NC(C)=O)[C@@H](C)O)C(=O)N[C@@H](Cc1c[nH]c2ccccc12)C(N)=O` [Compound No. 744, Ac-D-Tyr-Ser-Asn-Thr-Phe-AzaGly-Leu-Arg(Me)-Trp-NH2] (Ac-[dY]SNTF[azaGly]L[Arg(Me)]W-NH2), the “Specific Activity: intracellular Ca ion level-increasing activity [specific activity to Metastin (1-54)]” value is 2.4.

For `CNC(=N)NCCC[C@H](NC(=O)[C@H](CC(C)C)NC(=O)NNC(=O)[C@H](Cc1ccccc1)NC(=O)[C@@H](NC(=O)[C@H](CC(N)=O)NC(=O)CNC(=O)[C@@H](Cc1ccc(O)cc1)NC(C)=O)[C@@H](C)O)C(=O)N[C@@H](Cc1c[nH]c2ccccc12)C(N)=O` [Compound No. 726, Ac-D-Tyr-Gly-Asn-Thr-Phe-AzaGly-Leu-Arg(Me)-Trp-NH2] (Ac-[dY]GNTF[azaGly]L[Arg(Me)]W-NH2), the “Specific Activity: intracellular Ca ion level-increasing activity [specific activity to Metastin (1-54)]” value worked out at 3.1.

Regarding `CNC(=N)NCCC[C@H](NC(=O)[C@H](CC(C)C)NC(=O)NNC(=O)[C@H](Cc1ccccc1)NC(=O)[C@@H](NC(=O)[C@H](CC(N)=O)NC(=O)[C@@H](CCC(N)=O)NC(=O)[C@@H](Cc1ccc(O)cc1)NC(C)=O)[C@@H](C)O)C(=O)N[C@@H](Cc1c[nH]c2ccccc12)C(N)=O` [Compound No. 738, Ac-D-Tyr-D-Gln-Asn-Thr-Phe-AzaGly-Leu-Arg(Me)-Trp-NH2] (Ac-[dY][dQ]NTF[azaGly]L[Arg(Me)]W-NH2), the “Specific Activity: intracellular Ca ion level-increasing activity [specific activity to Metastin (1-54)]” value is 1.4.

Take `CNC(=N)NCCC[C@H](NC(=O)[C@H](CC(C)C)NC(=O)NNC(=O)[C@H](Cc1ccccc1)NC(=O)[C@@H](NC(=O)[C@H](CC(N)=O)NC(=O)CCNC(=O)[C@@H](Cc1ccc(O)cc1)NC(C)=O)[C@@H](C)O)C(=O)N[C@@H](Cc1c[nH]c2ccccc12)C(N)=O` [Compound No. 747, Ac-D-Tyr-β-Ala-Asn-Thr-Phe-AzaGly-Leu-Arg(Me)-Trp-NH2] (Ac-[dY][βAla]NTF[azaGly]L[Arg(Me)]W-NH2): the “Specific Activity: intracellular Ca ion level-increasing activity [specific activity to Metastin (1-54)]” value came out at 2.6.

For `CNC(=N)NCCC[C@H](NC(=O)[C@H](CC(C)C)NC(=O)NNC(=O)[C@H](Cc1ccc(Cl)cc1)NC(=O)[C@@H](NC(=O)[C@H](CC(N)=O)NC(=O)[C@@H](Cc1c[nH]c2ccccc12)NC(=O)[C@@H](Cc1ccc(O)cc1)NC(C)=O)[C@@H](C)O)C(=O)N[C@@H](Cc1c[nH]c2ccccc12)C(N)=O` [Compound No. 748, Ac-D-Tyr-D-Trp-Asn-Thr-Phe(4Cl)-AzaGly-Leu-Arg(Me)-Trp-NH2] (Ac-[dY][dW]NT[Phe(4-Cl)][azaGly]L[Arg(Me)]W-NH2), the “Specific Activity: intracellular Ca ion level-increasing activity [specific activity to Metastin (1-54)]” value is on record as 0.4.

As for `CNC(=N)NCCC[C@H](NC(=O)[C@H](CC(C)C)NC(=O)NNC(=O)[C@H](Cc1ccccc1)NC(=O)[C@@H](NC(=O)[C@H](CC(N)=O)NC(=O)[C@H](CC(C)C)NC(=O)[C@@H](Cc1ccc(O)cc1)NC(C)=O)[C@@H](C)O)C(=O)N[C@@H](Cc1c[nH]c2ccccc12)C(N)=O` [Compound No. 743, Ac-D-Tyr-Leu-Asn-Thr-Phe-AzaGly-Leu-Arg(Me)-Trp-NH2] (Ac-[dY]LNTF[azaGly]L[Arg(Me)]W-NH2), the “Specific Activity: intracellular Ca ion level-increasing activity [specific activity to Metastin (1-54)]” value was determined as 3.4.
